Source: US20260248771A1, “VALBENAZINE, A VMAT2 INHIBITOR, AS A FREE BASE A TOSYLATE OR DITOSYLATE SALT, FOR USE IN THE TREATMENT OF CHOREA ASSOCIATED WITH HUNTINGTON'S DISEASE” (Neurocrine Biosciences, Inc., priority 2022, published 2026)

How the values were obtained:
Assay type in all cases: in vivo, human
subjects with HD [1] = test: Phase 3 study: Huntington Disease Health Index (HD-HI); settings: for HD-HI hand and arm function subscale, change from baseline / HD-HI involuntary movements subscale, change from baseline / HD-HI mobility subscale, change from baseline: valbenazine group
Source text: (§1) Exploratory endpoints included: • Wearable movement sensors (in select sites; optional participation) using MC10 Inc., BIOSTAMP® NPOINT® system • Huntington Disease Health Index • Changes from the screening period baseline to each postbaseline study visit (Weeks 2 through 12) in the TMC based on site assessments • Changes from the screening period baseline to maintenance (the average of the Week 10 and Week 12 assessments) in the TMC based on video recording central rater assessments • CGI-C response at Weeks 2 through 10 • PGI-C response at Weeks 2 through 10 • The change from baseline to Weeks 4, 8, and 10 in the Neuro-QoL Upper Extremity Function T-score. • The change from baseline to Weeks 4, 8, and 10 in the Neuro-QoL Lower Extremity Function T-score • CGI-S at Weeks 2 through 12 • PGI-S at Weeks 2 through 12 • SF-36 at Week 12 • HD-HI at Week 10 and Week 12 • EQ-5D-5L at Week 10 and Week 12 • UHDRS scores for motor, behavior, and functional capacity assessment at Weeks 2 through 12 • Other UHDRS scores including functional assessment and independence scale at Week 12 • AS at Week 12 • Change from screening period in physical activity by movement sensors at the Week 10 visit period
The HD-HI includes 13 subscales that measure 13 individual areas of health in patients with HD. Observed values and change from baseline were summarized descriptively for each subscale and the total instrument score by treatment group and visit.

subjects with HD [2] = test: Phase 3 study: EuroQol 5 Dimensions 5 Levels (EQ-5D-5L)
Source text: as §1, with “visit period […]” for “visit period”

subjects with HD [3] = test: Phase 3 study: UHDRS functional assessment, independence scale, total functional capacity; settings: baseline to Week 12; either treatment group
Source text: as §1
The functional capacity portion of the UHDRS consists of 5 items. […]

subjects with HD [4] = test: Phase 3 study: Patient Global Impression of Change (PGI-C) response status
Source text: In certain embodiments, the method is effective to result in an improvement in Patient Global Impression of Change (PGI-C) response status, wherein subjects whose score is either a 1 (“very much improved”) or a 2 (“much improved”) in PGI-C were classified as responders. In certain embodiments, at least about 20%, such as at least about 25%, at least about 30%, at least about 35%, at least about 40%, at least about 50%, at least about 55%, were classified as responders. In certain embodiments, at least about 25% of subjects were classified as responders after 12 weeks of treatment.
(§2) A Phase 3, randomized, double-blind, placebo-controlled study to evaluate the efficacy, safety, and tolerability of once-daily valbenazine in subjects with HD was conducted. The study included a 4-week screening period, an 8-week dose-adjustment period, a 4-week maintenance period, and a final study visit 2 weeks following the final dose of study drug.
Secondary endpoints included: • Clinical Global Impression of Change (CGI-C) response status ([…] of “very much improved” or “much improved”) at Week 12; • Patient Global Impression of Change (PGI-C) response status ([…] of “very much improved” or “much improved”) at Week 12; • Change from baseline to Week 12 in the Quality of Life in Neurological Disorders Upper Extremity Function; and • Change from baseline to Week 12 in the Neuro-QoL Lower Extremity Function.
as §1

subjects with HD [5] = test: Phase 3 study: Neuro-QoL Lower Extremity Function T-score
Source text: As used herein, “Neuro-QoL” is a set of self-report measures that assesses the health-related quality of life (HRQOL) of adults and children with neurological disorders. Neuro-QoL Upper Extremity Function scale measures one's ability across fine motor and activities of daily living involving digital, manual and reach-related function and self-care. Neuro-QoL Lower Extremity Function scale measures one's ability to carry out various activities involving the trunk region and increasing degrees of bodily movement, ambulation, balance or endurance. See, National Institute of Neurological Disorders and Stroke (NINDS). User Manual for the Quality of Life in Neurological Disorders (Neuro-QoL) Measures, Version 2.0, March 2015, which is incorporated herein by reference in its entirety.
as §2, with “drug. […]” for “drug.”

Structure (SMILES): COc1cc2c(cc1OC)[C@H]1C[C@@H](OC(=O)[C@@H](N)C(C)C)[C@H](CC(C)C)CN1CC2 [Valbenazine, (S)-2-amino-3-methyl-butyric acid (2R,3R,11bR)-3-isobutyl-9,10-dimethoxy-1,3,4,6,7,11b-hexahydro-2H-pyrido[2,1-a]isoquinolin-2-yl ester]
- HD-HI hand and arm function subscale, change from baseline (subjects with HD [1]; Week 10): −7.154
- HD-HI involuntary movements subscale, change from baseline (subjects with HD [1]; Week 10): −12.220
- HD-HI mobility subscale, change from baseline (subjects with HD [1]; Week 10): placebo for mobility (Week 10: −6.319 valbenazine vs −4.131
- HD-HI involuntary movements subscale, LS mean difference between treatment groups (subjects with HD [1]; Week 12, ANCOVA model): LS mean difference between treatment groups of −6.662 (95%
- HD-HI hand and arm function subscale, change from baseline (subjects with HD [1]; Week 12): −7.169
- HD-HI involuntary movements subscale, change from baseline (subjects with HD [1]; Week 12): −11.195
- HD-HI mobility subscale, change from baseline (subjects with HD [1]; Week 12): placebo; Week 12: −4.208 vs −2.708), involuntary movements (Week
- HD-HI total score, changes from baseline (subjects with HD [1]; Weeks 10 and 12): valbenazine group. No meaningful changes in the HD-HI total score
- EQ-5D-5L health index score and distribution of scores for each dimension, differences between treatment groups (subjects with HD [2]; baseline to Weeks 10 and 12): No notable differences between treatment groups were observed
- EQ-5D-5L shift toward worsening in any dimension (subjects with HD [2]; valbenazine group): index score and distribution of scores for each dimension. No shift
- UHDRS functional assessment, independence, and total functional capacity scores, changes from baseline (subjects with HD [3]): No clinically meaningful changes were noted from baseline to Week
- PGI-C response rate difference between treatment groups (valbenazine minus placebo) (subjects with HD [4]; Week 2): through 10 as follows: Week 2 (18.52% [95% CI: 5.48, 31.41],
- PGI-C response rate difference between treatment groups (valbenazine minus placebo) (subjects with HD [4]; Week 4): nominal p = 0.0042), Week 4 (18.57% [95% CI: 3.79, 32.70], nominal
- PGI-C response rate difference between treatment groups (valbenazine minus placebo) (subjects with HD [4]; Week 6): p = 0.0120), Week 6 (23.08% [95% CI: 5.60, 39.04], nominal
- PGI-C response rate difference between treatment groups (valbenazine minus placebo) (subjects with HD [4]; Week 8): p = 0.0064), Week 8 (26.44% [95% CI: 7.70, 42.49], nominal
- PGI-C response rate difference between treatment groups (valbenazine minus placebo) (subjects with HD [4]; Week 10): p = 0.0037), and Week 10 (16.94% [95% CI: −1.37, 34.63], nominal
- PGI-C @ week 12, % responders (subjects with HD [4]; Week 12, valbenazine group): 52.7%
- PGI-C @ week 12, % responders, Difference (subjects with HD [4]; Week 12, valbenazine vs placebo): 26.3%
- Neuro-QoL Lower Extremity Function T Score CFB @ week 12, LS Mean (subjects with HD [5]; valbenazine group): −0.27
- Neuro-QoL Lower Extremity Function T Score CFB @ week 12, LS Mean, Difference (subjects with HD [5]; valbenazine vs placebo): −0.88
